From US11661422B2, “Tricyclic urea compounds as JAK2 V617F inhibitors” (Incyte Corporation, priority 2020, dated 2023)
Structures can show the parent of a compound that is named as a salt.

Assays:
[1] = target: catalytic domain (JH1, amino acids 808-1132) of human JAK2 (Homo sapiens (Human), UniProt O60674); assay: JAK2 HTRF Enzyme Activity Assay; type: biochemical; conditions: JAK2 0.015 nM, ATP (30 μM or 1 mM), 60 minutes at 25° C.
Method: Example D. JAK2 HTRF Enzyme Activity Assay
JAK2 enzyme activity assays utilize catalytic domain (JH1, amino acids 808-1132) of human JAK2 expressed as N-terminal His-tagged protein in a baculovirus expression system (BPS Bioscience, Catalog #40450). The assays was conducted in black 384-well polystyrene plates in a final reaction volume of 20 μL. JAK2 (0.015 nM) was incubated with compounds (100 nL serially diluted in DMSO) in the presence of ATP (30 μM or 1 mM) and 500 nM Biotin-labeled […] (SEQ ID NO.: 1) peptide (BioSource International, custom synthesis) in assay buffer (50 mM Tris, pH=7.5, 10 mM MgCl2, 0.01% Brij-35, 0.1% BSA, 1 mM EGTA, 5% Glycerol and 5 mM DTT) for 60 minutes at 25° C. The reactions were stopped by the addition of 10 μL of detection buffer (50 mM Tris, pH 7.8, 0.5 mg/mL BSA, 150 mM NaCl), supplemented with EDTA, LANCE Eu-W1024 anti-phosphotyrosine (PY20), (PerkinElmer, Catalog #AD0067) and Streptavidin SureLight APC (PerkinElmer Catalog #CR130-100), for a final concentration of 15 mM, 1.5 nM and 75 nM, respectively. HTRF signals were read after 30 minutes incubation at room temperature on a PHERAstar FS plate reader (BMG LABTECH). Data was analyzed with IDBS XLfit and GraphPad Prism 5.0 software using a four parameter dose response curve to determine IC50 for each compound.

[2] = target: catalytic domain (JH1, amino acids 826-1132) of human JAK2 (Homo sapiens (Human), UniProt O60674); assay: JAK2 LanthaScreen JH1 Binding Assay; conditions: JAK2 JH1 1.5 nM, 50 nM fluorescent tracer, 2 hours at 25° C.; read-out: JH1 BIND IC50
Method: Example A. JAK2 LanthaScreen JH1 Binding Assay
(§1) JAK2 JH1 binding assay utilizes catalytic domain (JH1, amino acids 826-1132) of human JAK2 expressed as N-terminal FLAG-tagged, biotinylated protein in a baculovirus expression system (Carna Biosciences, Product #08-445-20N). The assay was conducted in black 384-well polystyrene plates in a final reaction volume of 20 μL. JAK2 JH1 (1.5 nM) was incubated with compounds (100 nL serially diluted in DMSO) in the presence of 50 nM Fluorescent JAK2-JH1 Tracer and 0.5 nM Streptavidin-Tb cryptate (Cisbio Part #610SATLB) in assay buffer (50 mM Tris, pH=7.5, 10 mM MgCl2, 0.01% Brij-35, 0.1% BSA, 1 mM EGTA, 5% Glycerol and 5 mM DTT). Non-specific binding was accessed in the presence of 2 mM ATP. After incubation for 2 hours at 25° C., LanthaScreen signals were read on a PHERAstar FS plate reader (BMG LABTECH). Data was analyzed with IDBS XLfit and GraphPad Prism 5.0 software using a four parameter dose response curve to determine IC50 for each compound.

[3] = target: pseudo-kinase domain (JH2, amino-acids 536-812) of human V617F mutant JAK2 (Homo sapiens (Human), UniProt O60674, F794H/V617F/W659A/W777A); assay: JAK2 LanthaScreen JH2-V617F Binding Assay; conditions: JAK2 JH2-V617F 0.26 nM, 50 nM fluorescent tracer, 1 hour at 25° C.; read-out: JH2 BIND V617F IC50
Method: The assay was conducted in black 384-well polystyrene plates in a final reaction volume of 20 μL. […] Non-specific binding was accessed in the presence of 2 mM ATP. After incubation for 1 hour at 25° C., LanthaScreen signals were read on a PHERAstar FS plate reader (BMG LABTECH). Data was analyzed with IDBS XLfit and GraphPad Prism 5.0 software using a four parameter dose response curve to determine IC50 for each compound.

[4] = target: pseudo-kinase domain (JH2, amino-acids 536-812) of human Wild Type JAK2 (Homo sapiens (Human), UniProt O60674, F794H/W659A/W777A); assay: JAK2 LanthaScreen JH2-WT Binding Assay; conditions: JAK2 JH2-WT 0.145 nM, 50 nM fluorescent tracer, 1 hour at 25° C.; read-out: JH2 BIND WT IC50
Method: Example B. JAK2 LanthaScreen JH2-WT Binding Assay
as §1, with “The” for “JAK2 JH1 binding assay utilizes catalytic domain (JH1, amino acids 826-1132) of human JAK2 expressed as N-terminal FLAG-tagged, biotinylated protein in a baculovirus expression system (Carna Biosciences, Product #08-445-20N). The”, “JH2-WT (0.145” for “JH1 (1.5”, “JAK2-JH2” for “JAK2-JH1”, “Tracer (MedChem Express Catalog #HY-102055)” for “Tracer”, “0.25” for “0.5”, “1 hour” for “2 hours”

Sequence of catalytic domain (JH1, amino acids 826-1132) of human JAK2 (O60674 826-1132): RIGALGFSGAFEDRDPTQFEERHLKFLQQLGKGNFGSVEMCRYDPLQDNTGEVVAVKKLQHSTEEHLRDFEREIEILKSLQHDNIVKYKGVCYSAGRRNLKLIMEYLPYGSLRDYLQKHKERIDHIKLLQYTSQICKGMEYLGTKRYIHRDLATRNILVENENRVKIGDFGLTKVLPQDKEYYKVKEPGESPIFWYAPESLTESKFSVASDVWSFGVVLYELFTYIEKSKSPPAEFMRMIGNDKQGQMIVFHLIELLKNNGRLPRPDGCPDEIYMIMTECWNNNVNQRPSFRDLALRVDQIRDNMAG
Sequence of pseudo-kinase domain (JH2, amino-acids 536-812) of human V617F mutant JAK2 (O60674 536-812 V617F/W659A/W777A/F794H): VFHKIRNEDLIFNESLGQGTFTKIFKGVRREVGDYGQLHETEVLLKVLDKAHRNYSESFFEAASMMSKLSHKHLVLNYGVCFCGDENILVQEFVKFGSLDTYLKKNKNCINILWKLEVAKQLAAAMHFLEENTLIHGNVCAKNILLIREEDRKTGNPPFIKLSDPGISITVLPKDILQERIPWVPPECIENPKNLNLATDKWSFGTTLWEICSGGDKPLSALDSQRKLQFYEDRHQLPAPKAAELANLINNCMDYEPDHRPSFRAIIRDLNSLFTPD
Sequence of catalytic domain (JH1, amino acids 808-1132) of human JAK2 (O60674 808-1132): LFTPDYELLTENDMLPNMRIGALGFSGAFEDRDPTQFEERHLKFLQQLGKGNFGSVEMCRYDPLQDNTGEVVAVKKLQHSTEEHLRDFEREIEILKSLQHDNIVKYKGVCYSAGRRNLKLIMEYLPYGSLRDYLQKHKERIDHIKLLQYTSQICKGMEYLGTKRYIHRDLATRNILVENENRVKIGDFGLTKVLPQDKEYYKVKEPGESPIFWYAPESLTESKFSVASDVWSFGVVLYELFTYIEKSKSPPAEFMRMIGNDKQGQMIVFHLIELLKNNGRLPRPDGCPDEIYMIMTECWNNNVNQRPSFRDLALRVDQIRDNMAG
Sequence of pseudo-kinase domain (JH2, amino-acids 536-812) of human Wild Type JAK2 (O60674 536-812 W659A/W777A/F794H): as the sequence (O60674 536-812 V617F/W659A/W777A/F794H) above, with F82V counted along it

Compound | IC50 [1] [nM] | IC50 [2] [nM] | IC50 [3] [nM] | IC50 [4] [nM]
CN1C(=O)N(C(C)(C)C)Cc2c1cnc1[nH]c(-c3ccc(CN4CCC(S(C)(=O)=O)CC4)cc3)c(-c3ccc(C(=O)NCC4(C#N)CC4)cc3)c21 [Example 14, 4-(2-(tert-Butyl)-4-methyl-8-(4-((4-(methylsulfonyl)piperidin-1-yl)methyl)phenyl)-3-oxo-2,3,4,7-tetrahydro-1H-pyrrolo[3′,2′:5,6]pyrido[3,4-d]pyrimidin-9-yl)-N-((1-cyanocyclopropyl)methyl)benzamide Trifluoroacetic Acid] | ≤ 100 | ≤ 100 | ≤ 100 | ≤ 100
COC(=O)c1c(-c2ccc(CN3CCC(S(C)(=O)=O)CC3)cc2)[nH]c2ncc3c(c12)CN(c1ccc(C(=O)O)cc1)C(=O)N3C [Example 15, 4-(9-(Methoxycarbonyl)-4-methyl-8-(4-((4-(methylsulfonyl)piperidin-1-yl)methyl)phenyl)-3-oxo-1,3,4,7-tetrahydro-2H-pyrrolo[3′,2′:5,6]pyrido[3,4-d]pyrimidin-2-yl)benzoic acid Trifluoroacetic Acid Salt] | > 2500 | > 2500 | 100 to 500 | 100 to 500
CC(=O)NCc1ccc(-c2c(-c3ccc(CN4CCC(S(C)(=O)=O)CC4)cc3)[nH]c3ncc4c(c23)CN(C(C)(C)C)C(=O)N4C)cc1 [Example 16, N-(4-(2-(tert-Butyl)-4-methyl-8-(4-((4-(methylsulfonyl)piperidin-1-yl)methyl)phenyl)-3-oxo-2,3,4,7-tetrahydro-1H-pyrrolo[3′,2′:5,6]pyrido[3,4-d]pyrimidin-9-yl)benzyl)acetamide] | ≤ 100 | ≤ 100 | ≤ 100 | ≤ 100
CNS(=O)(=O)c1ccc(-c2c(-c3ccc(CN4CCC(S(C)(=O)=O)CC4)cc3)[nH]c3ncc4c(c23)CN(C(C)(C)C)C(=O)N4C)cc1 [Example 17, 4-(2-(tert-Butyl)-4-methyl-8-(4-((4-(methylsulfonyl)piperidin-1-yl)methyl)phenyl)-3-oxo-2,3,4,7-tetrahydro-1H-pyrrolo[3′,2′:5,6]pyrido[3,4-d]pyrimidin-9-yl)-N-methylbenzenesulfonamide, trifluoroacetic acid salt] | ≤ 100 | ≤ 100 | ≤ 100 | ≤ 100
CC(=O)N1CCN(c2ccc(-c3c(-c4ccc(CN5CCC(S(C)(=O)=O)CC5)cc4)[nH]c4ncc5c(c34)CN(C(C)(C)C)C(=O)N5C)cc2)CC1 [Example 18, 9-(4-(4-Acetylpiperazin-1-yl)phenyl)-2-(tert-butyl)-4-methyl-8-(4-((4-(methylsulfonyl)piperidin-1-yl)methyl)phenyl)-1,2,4,7-tetrahydro-3H-pyrrolo[3′,2′:5,6]pyrido[3,4-d]pyrimidin-3-one, trifluoroacetic acid salt] | ≤ 100 | ≤ 100 | ≤ 100 | ≤ 100
CC(=O)N1CC=C(c2c(-c3ccc(CN4CCC(S(C)(=O)=O)CC4)cc3)[nH]c3ncc4c(c23)CN(c2ccc(C(=O)O)cc2)C(=O)N4C)CC1 [Example 20, 4-(9-(1-Acetyl-1,2,3,6-tetrahydropyridin-4-yl)-4-methyl-8-(4-((4-(methylsulfonyl)piperidin-1-yl)methyl)phenyl)-3-oxo-1,3,4,7-tetrahydro-2H-pyrrolo[3′,2′:5,6]pyrido[3,4-d]pyrimidin-2-yl)benzoic acid Trifluoroacetic Acid Salt] | > 2500 | > 2500 | ≤ 100 | ≤ 100
CN1C(=O)N(c2ccc(C(=O)O)cc2)Cc2c1cnc1[nH]c(-c3ccc(CN4CCC(S(C)(=O)=O)CC4)cc3)c(-c3ccc(C4(N)CC4)cc3)c21 [Example 21, 4-(9-(4-(1-Aminocyclopropyl)phenyl)-4-methyl-8-(4-((4-(methylsulfonyl)piperidin-1-yl)methyl)phenyl)-3-oxo-1,3,4,7-tetrahydro-2H-pyrrolo[3′,2′:5,6]pyrido[3,4-d]pyrimidin-2-yl)benzoic acid trifluoroacetic acid salt (1:2)] | > 2500 | 1000 to 2500 | ≤ 100 | ≤ 100
CN1C(=O)N(c2ccc(C(=O)O)cc2)Cc2c1cnc1[nH]c(-c3ccc(CN4CCC(S(C)(=O)=O)CC4)cc3)c(-c3ccn(C)c3)c21 [Example 22, 4-(4-Methyl-9-(1-methyl-1H-pyrrol-3-yl)-8-(4-((4-(methylsulfonyl)piperidin-1-yl)methyl)phenyl)-3-oxo-1,3,4,7-tetrahydro-2H-pyrrolo[3′,2′:5,6]pyrido[3,4-d]pyrimidin-2-yl)benzoic acid trifluoroacetic acid salt] | 1000 to 2500 | 1000 to 2500 | ≤ 100 | ≤ 100
CN1C(=O)N(c2ccc(C(=O)O)cc2)Cc2c1cnc1[nH]c(-c3ccc(CN4CCC(S(C)(=O)=O)CC4)cc3)c(C3CC3)c21 [Example 23, 4-(9-Cyclopropyl-4-methyl-8-(4-((4-(methylsulfonyl)piperidin-1-yl)methyl)phenyl)-3-oxo-1,3,4,7-tetrahydro-2H-pyrrolo[3′,2′:5,6]pyrido[3,4-d]pyrimidin-2-yl)benzoic acid, trifluoroacetic acid salt] | > 2500 | > 2500 | ≤ 100 | ≤ 100
CN1C(=O)N(c2ccc(C(=O)O)cc2)Cc2c1cnc1[nH]c(-c3ccc(CN4CCC(S(C)(=O)=O)CC4)cc3)c(C#N)c21 [Example 24, 4-(9-Cyano-4-methyl-8-(4-((4-(methylsulfonyl)piperidin-1-yl)methyl)phenyl)-3-oxo-1,3,4,7-tetrahydro-2H-pyrrolo[3′,2′:5,6]pyrido[3,4-d]pyrimidin-2-yl)benzoic acid Trifluoroacetic Acid Salt] | > 2500 | > 2500 | 100 to 500 | 100 to 500
CN1C(=O)N(c2ccc(C(=O)O)cc2)Cc2c1cnc1[nH]c(-c3ccc(CN4CCC(S(C)(=O)=O)CC4)cc3)c(I)c21 [Example 25, 4-(9-Iodo-4-methyl-8-(4-((4-(methylsulfonyl)piperidin-1-yl)methyl)phenyl)-3-oxo-1,3,4,7-tetrahydro-2H-pyrrolo[3′,2′:5,6]pyrido[3,4-d]pyrimidin-2-yl)benzoic acid Trifluoroacetic Acid Salt] | 1000 to 2500 | 500 to 1000 | ≤ 100 | ≤ 100
